{"source": "patent US20240050582A1", "about": "“CONJUGATES INCLUDING MULTIPLE SACCHARIDIC CHAINS ON A LINEAR PROTEIN AND USES IN MAMMALS FEED” (UNIVERSITEIT GENT, priority 2021, published 2024)", "key": {"[1]": {"test_system": "F18+ E. coli (strain 107/86)", "conditions": "for Average % inhibition: free A6-1 10 mg/ml (positive control); for Conjugate inhibition (M) / M − C (measure of the specific blockage of F18 fimbriae by A6) / Optimal inhibitory dose: A6 supplied via the conjugate / Optimal inhibitory dose: Carrier supplied via the conjugate: Table 9; for Conjugate inhibition (M): A6-1 conjugate of the carrier, at its optimal inhibitory dose; for M − C (measure of the specific blockage of F18 fimbriae by A6): difference conjugate inhibition minus carrier inhibition; for Optimal inhibitory dose: A6 supplied via the conjugate / Optimal inhibitory dose: Carrier supplied via the conjugate: in vitro"}, "F18+ E. coli": {"test_system": "F18+ E. coli", "assay": "Blocking assay with fluorescein conjugated A6-1 monomers", "type": "binding, Escherichia coli", "conditions": "pre-incubation 1 h; actual A6-1 12 μg/ml (CMCL, CMCM), 120 μg/ml (polylysine); monomeric A6-1 1 mg/ml", "procedure": "A blocking assay was developed to understand inhibition. In this assay, F18+E. coli were first incubated for one hour at room temperature with either the carriers or A6-1 conjugates, while gently shaking. Concentrations used were chosen so that the actual A6-1 concentration was 12 μg/ml for A6-1 conjugated carriers CMCM and CMCL (and the similar concentration of non-conjugated carriers) or 120 μg/ml for the A6-1 conjugated carrier polylysine (A6-1-PL-14). […] Subsequently, fluorescein conjugated A6-1 monomers (A6-F) were added (1 mg/ml) for one hour at room temperature. The fluorescing oligosaccharide was labeled at the reducing end of the molecule with fluorescein (also named 6A1-FITC). Next free A6-1-fluorescein was washed away with PBS followed by centrifugation at 2000 g for 5 min and resuspensions of the pellet with PBS. This was repeated twice.\nIf carriers without A6-1 bind to the bacteria, they will block the binding of A6-F and no fluorescence-bound bacteria can be detected by fluorescence microscopy. If there is no binding of the carrier to the bacteria in the first step of the test, fluorescing bacteria will be seen. […]\nAs aforementioned, high non-AG based inhibition of most carriers was observed. […] Subsequently, fluorescence conjugated AG-1 monomers (AG-1-F) were added and binding of the fluorescing AG-1 to the bacteria was determined using a fluorescence microscope."}, "F18 E. coli [2]": {"test_system": "F18 E. coli", "assay": "Part E: bacterial translocation in lymph nodes and spleen", "conditions": "AGP"}, "β-hemolytic coliforms": {"test_system": "β-hemolytic coliforms", "type": "in vivo, pig", "conditions": "AGP (50 mg/kg carbadox)"}, "F18 E. coli [3]": {"test_system": "F18 E. coli", "assay": "Part E: intestinal morphology", "conditions": "linear"}, "F18 E. coli [4]": {"test_system": "F18 E. coli", "type": "in vivo, pig", "conditions": "compared with positive control; P<0.05"}, "[5]": {"test_system": "F18ac bacteria 2134P (STa+ STb+)", "assay": "In vivo small intestinal segment perfusion model (SISP)", "set-up": "species or system pig"}, "[6]": {"conditions": "d 5 PI, compared with the control, P<0.05"}}, "note": "Like-named read-outs stand apart in the source and are kept apart here. Marks after values point to notes of the source that are not given here.", "data": [{"molecule": "CC(=O)N[C@H]1[C@@H](O[C@H]2[C@@H](O)[C@@H](CO)O[C@@H](O[C@H]3[C@H](O)[C@@H](CO)O[C@@H](O[C@H]4[C@@H](O)[C@@H](CO)O[C@@H](O[C@H]5[C@H](O)[C@@H](O)C(O)O[C@@H]5CO)[C@@H]4O)[C@@H]3NC(C)=O)[C@@H]2O[C@@H]2O[C@@H](C)[C@@H](O)[C@@H](O)[C@@H]2O)O[C@H](CO)[C@H](O)[C@@H]1O", "note": "(stereo partly drawn) [A6-1, GalNAcα1-3(Fucα1-2)Galβ1-3GlcNAcβ1-3Galβ1-4Glc, reference compound]", "values": [{"measurement": "Average % inhibition", "setting": "[1]; Table 8-A", "result": 71.3, "unit": "%"}, {"measurement": "Average % inhibition", "setting": "[1]; Table 8-B CMCL type 1", "result": 69.5, "unit": "%"}, {"measurement": "Average % inhibition", "setting": "[1]; Table 8-B CMCL type 2", "result": 57.05, "unit": "%"}, {"measurement": "Average % inhibition", "setting": "[1]; Table 8-C CMCM type 1", "result": 63.6, "unit": "%"}, {"measurement": "Average % inhibition", "setting": "[1]; Table 8-C CMCM type 2", "result": 61.26, "unit": "%"}, {"measurement": "fluorescence of bacteria after A6-1-fluorescein (blocking of A6-F binding)", "setting": "F18+ E. coli", "result": "completely abolished fluorescence"}]}, {"molecule": "COC(=O)N/N=C/c1c[n+]([O-])c2ccccc2[n+]1[O-]", "note": "[AGP, carbadox]", "values": [{"measurement": "Bacterial translocation, Lymph node", "setting": "F18 E. coli [2]; d 5 PI", "result": "147^ab cfu/g"}, {"measurement": "Bacterial translocation, Spleen", "setting": "F18 E. coli [2]; d 5 PI", "result": 47, "unit": "cfu/g"}, {"measurement": "Bacterial translocation, Lymph node", "setting": "F18 E. coli [2]; d 11 PI", "result": "279^ab cfu/g"}, {"measurement": "Bacterial translocation, Spleen", "setting": "F18 E. coli [2]; d 11 PI", "result": "56^b cfu/g"}, {"measurement": "percentage of β-hemolytic coliform", "setting": "β-hemolytic coliforms; d 2 PI", "result": "31.56^b %"}, {"measurement": "percentage of β-hemolytic coliform", "setting": "β-hemolytic coliforms; d 5 PI", "result": "8.79^b %"}, {"measurement": "percentage of β-hemolytic coliform", "setting": "β-hemolytic coliforms; d 8 PI", "result": "2.77^b %"}, {"measurement": "percentage of β-hemolytic coliform", "setting": "β-hemolytic coliforms; d 11 PI", "result": 2.10, "unit": "%"}]}, {"molecule": "CNCCCCC(CNCCCCC(N)C(=O)NCCCCC(N)C(C)=O)NCC(O)C(O)C(O[C@@H]1OC(CO)[C@H](O)C(O[C@@H]2OC(CO)[C@@H](O)C(O[C@@H]3OC(CO)[C@H](O)C(O[C@H]4OC(CO)[C@H](O)C(O)C4NC(C)=O)C3O[C@@H]3OC(C)[C@@H](O)C(O)C3O)C2NC(C)=O)C1O)C(O)CO", "note": "(stereo partly drawn) [Coligo A6PL]", "values": [{"measurement": "ratio of villi height to crypt depth in jejunum", "setting": "F18 E. coli [3]; [6]", "result": "enhanced"}, {"measurement": "villi height, ratio of villi height to crypt depth, and villi area in ileum", "setting": "F18 E. coli [3]; [6]", "result": "increased"}, {"measurement": "villi height, ratio of villi height to crypt depth, villi width, and villi area in duodenum", "setting": "F18 E. coli [3]; [6]", "result": "dose-dependently increased"}, {"measurement": "ratio of villi height to crypt depth in jejunum and ileal villi height", "setting": "F18 E. coli [3]; d 11 PI, P<0.10", "result": "tended to increase"}, {"measurement": "feed efficiency from d 0 to 5 PI", "setting": "F18 E. coli [4]", "result": "enhanced"}, {"measurement": "net absorption of perfusion fluid", "setting": "[5]; 2 μg/ml actual A6-1 (A6-1-PL-14), segment number 4", "result": "+0.03 g/cm^2"}, {"measurement": "net absorption of perfusion fluid", "setting": "[5]; 8 μg/ml actual A6-1 (A6-1-PL-14), segment number 5", "result": "+0.21 g/cm^2"}, {"measurement": "net absorption of perfusion fluid", "setting": "[5]; 32 μg/ml actual A6-1 (number 6) or the same concentration of polylysine (number 8)", "result": 0, "unit": "g/cm^2"}]}, {"molecule": "Alginate [reference compound]", "values": [{"measurement": "Conjugate inhibition (M)", "setting": "[1]", "result": 41, "unit": "%"}, {"measurement": "M − C (measure of the specific blockage of F18 fimbriae by A6)", "setting": "[1]", "result": "−15", "unit": "%"}, {"measurement": "Optimal inhibitory dose: A6 supplied via the conjugate", "setting": "[1]", "result": 0.6, "unit": "µg/mL"}, {"measurement": "Optimal inhibitory dose: Carrier supplied via the conjugate", "setting": "[1]", "result": 0.081, "unit": "mg/mL"}]}, {"molecule": "Pectin [reference compound]", "values": [{"measurement": "Conjugate inhibition (M)", "setting": "[1]", "result": 64, "unit": "%"}, {"measurement": "M − C (measure of the specific blockage of F18 fimbriae by A6)", "setting": "[1]", "result": "−5", "unit": "%"}, {"measurement": "Optimal inhibitory dose: A6 supplied via the conjugate", "setting": "[1]", "result": 1.2, "unit": "µg/mL"}, {"measurement": "Optimal inhibitory dose: Carrier supplied via the conjugate", "setting": "[1]", "result": 0.25, "unit": "mg/mL"}]}]}
